Measurements: patent US10457710B2, “Antimicrobial peptides, their variants and uses” (priority 2015, dated 2019)
Where a SMILES comes first, the peptide text is derived from it. [ ]: non-standard residue; d: D form.

What was measured:
Format in all cases: cell-based
[1] = test system: clinical strains of E. coli; experiment: MIC, microdilution, clinical strains; settings: microdilution, Muller Hinton broth-cation adjusted, 0.02% BSA, 0.2% acetic acid
Protocol: (§1) Minimum inhibition concetrations (MICs) were determined against Escherichia coli (ATCC 25922), Staphylococcus aureus (ATCC 25923), Klebsiella pneumoniae (ATCC 10031) and Pseudomonas aeruginosa (ATCC 27853). Also clinical strains of E. coli, K. pneumoniae, E. cloacae, P. aeruginosa, Serratia marcescens, Proteus mirabilis, S. pneumoniae, Acinetobacter baumannii, A. johnsonii and S. aureus were used for MICs assays. Additionally, clinical strains of yeast including Candida albicans, C. glabrata, C. parapsilosis and C. quillermondiae were used. The susceptibility of these microorganisms to Chain peptides were determined using micro broth dilution assay. Colonies of the respective microorganism from Muller Hinton (MH) agar plates incubated overnight were suspended in MH broth media and final concentration of microorganism was adjusted to 5.0×10^5 cfu/ml. An aliquot of 10 μl of each Chain peptide, or gentamicin, tetracycline as reference antibiotics were added in differing concentrations along with 90 μl of bacterial suspension to 96 well polypropylene plates and incubated at 37° C. for 20 to 24 hours. Concentrations of Chain peptides and reference antibiotics ranged from 0.125 to 128 μg/ml and the MICs were recorded as the lowest concentration with no visual growth of bacteria. Similarly, antifungal MICs were tested in Potato dextrose broth.
(§2) Clinical strains of yeasts including Candida albicans, C. glabrata, C. parapsilosis and C. quillermondiae were also tested with the 12 Chain peptides. The minimum inhibitory concentration (MICs) varied between these peptides and are presented in Tables 4a, 4b, 4c and 5a, 5b, 5c. Peptides Chain 105, 201 and 308 are broad spectrum antimicrobials with MICs between 0.5-32 μg/ml against all the bacteria and yeasts tested, except Serratia marcescens and Proteus mirabilis, against which the MICs were between 64-128 μg/ml. Peptide Chain 306 has narrow spectrum activity against E. coli at 1 μg/ml and for the rest of the bacterial strains at >32 μg/ml (FIG. 10c).

[2] = test system: clinical strains of K. pneumoniae; experiment: MIC, microdilution, clinical strains; settings: 0.02% BSA, 0.2% acetic acid
Protocol: as §1, §2

[3] = test system: clinical strains of S. pneumoniae; experiment: MIC, microdilution, clinical strains; settings: 0.02% BSA, 0.2% acetic acid
Protocol: as §1, §2

[4] = test system: clinical strains of Proteus mirabilis; experiment: MIC, microdilution, clinical strains; settings: 0.02% BSA, 0.2% acetic acid
Protocol: as §1, §2

[5] = test system: clinical strains of Serratia marcescens; experiment: MIC, microdilution, clinical strains; settings: 0.02% BSA, 0.2% acetic acid
Protocol: as §1, §2

[6] = test system: clinical strains of S. aureus; experiment: MIC, microdilution, clinical strains; settings: 0.02% BSA, 0.2% acetic acid
Protocol: as §1, §2

[7] = test system: clinical strains of P. aeruginosa; experiment: MIC, microdilution, clinical strains; settings: 0.02% BSA, 0.2% acetic acid
Protocol: as §1, §2

[8] = test system: clinical strains of E. cloacae; experiment: MIC, microdilution, clinical strains; settings: 0.02% BSA, 0.2% acetic acid
Protocol: as §1, §2

[9] = test system: C. glabrata; experiment: MIC, clinical yeast strains
Protocol: as §1, §2

[10] = test system: C. parapsilosis; experiment: MIC, clinical yeast strains
Protocol: as §1, §2

[11] = test system: Candida albicans; experiment: MIC, clinical yeast strains
Protocol: as §1, §2

[12] = test system: C. quillermondiae; experiment: MIC, clinical yeast strains; design: Minimum inhibitory concentration: unit: μg/ml; settings: C. quillermondiae clinical yeast strain 1
Protocol: as §1, §2

[13] = C. glabrata clinical yeast strain 1
[14] = C. glabrata clinical yeast strain 2
[15] = C. glabrata clinical yeast strain 3
[16] = C. glabrata clinical yeast strain 4
[17] = C. parapsilosis clinical yeast strain 1
[18] = C. parapsilosis clinical yeast strain 2
[19] = C. parapsilosis clinical yeast strain 3
[20] = C. parapsilosis clinical yeast strain 4
[21] = Candida albicans clinical yeast strain 1
[22] = Candida albicans clinical yeast strain 2
[23] = Candida albicans clinical yeast strain 3
[24] = Candida albicans clinical yeast strain 4
[25] = Candida albicans clinical yeast strain 5

CC(C)C[C@@H](NC(=O)[C@H](N)CCCCN)C(=O)N[C@H](CCCCN)C(=O)N[C@H](Cc1c[nH]c2ccccc12)C(=O)N[C@H](Cc1ccccc1)C(=O)N[C@H](Cc1c[nH]c2ccccc12)C(=O)N[C@H](CC(C)C)C(=O)N[C@H](Cc1ccccc1)C(=O)N[C@H](CCCCN)C(=O)N[C@H](CCCCN)C(=O)N[C@H](CCCNC(=N)N)C(=O)O [Chain311D] (H-[dK][dL][dK][dW][dF][dW][dL][dF][dK][dK][dR]-OH) was tested, and the Minimum inhibitory concentration ([1]; Escherichia coli strain 1) was 2, the Minimum inhibitory concentration ([1]; Escherichia coli strain 2) was 2 and the Minimum inhibitory concentration ([1]; Escherichia coli strain 3) was 1. For the same compound, the Minimum inhibitory concentration ([1]; Escherichia coli strain 4) was 0.5, the Minimum inhibitory concentration ([1]; Escherichia coli strain 5) was 1 and the Minimum inhibitory concentration ([2]; Klebsiella pneumoniae strain 1, Muller Hinton broth-cation adjusted) was 8. It also gave a Minimum inhibitory concentration ([2]; Klebsiella pneumoniae strain 2, Muller Hinton broth-cation adjusted) of 8, a Minimum inhibitory concentration ([2]; Klebsiella pneumoniae strain 3, Muller Hinton broth-cation adjusted) of 4 and a Minimum inhibitory concentration ([2]; Klebsiella pneumoniae strain 4, Muller Hinton broth-cation adjusted) of 8. It also gave a Minimum inhibitory concentration ([2]; Klebsiella pneumoniae strain 5, Muller Hinton broth-cation adjusted) of 4, a Minimum inhibitory concentration ([3]; Streptococcus pneumoniae strain 1, Muller Hinton broth-cation adjusted) of 16 and a Minimum inhibitory concentration ([3]; Streptococcus pneumoniae strain 2, Muller Hinton broth-cation adjusted) of 8. The Minimum inhibitory concentration ([3]; Streptococcus pneumoniae strain 3, Muller Hinton broth-cation adjusted) was 16, the Minimum inhibitory concentration ([3]; Streptococcus pneumoniae strain 4, Muller Hinton broth-cation adjusted) was 4 and the Minimum inhibitory concentration ([3]; Streptococcus pneumoniae strain 5, Muller Hinton broth-cation adjusted) was 8. It also gave a Minimum inhibitory concentration ([4]; Proteus mirabilis strain 1, Muller Hinton broth-cation adjusted) greater than 128, a Minimum inhibitory concentration ([4]; Proteus mirabilis strain 2, Muller Hinton broth-cation adjusted) of 128 and a Minimum inhibitory concentration ([4]; Proteus mirabilis strain 3, Muller Hinton broth-cation adjusted) of 128. For the same compound, the Minimum inhibitory concentration ([4]; Proteus mirabilis strain 4, Muller Hinton broth-cation adjusted) was greater than 128, the Minimum inhibitory concentration ([4]; Proteus mirabilis strain 5, Muller Hinton broth-cation adjusted) was greater than 128 and the Minimum inhibitory concentration ([5]; Serratia marcescens strain 1, Muller Hinton broth-cation adjusted) was greater than 128. It also gave a Minimum inhibitory concentration ([5]; Serratia marcescens strain 2, Muller Hinton broth-cation adjusted) greater than 128, a Minimum inhibitory concentration ([5]; Serratia marcescens strain 3, Muller Hinton broth-cation adjusted) greater than 128 and a Minimum inhibitory concentration ([5]; Serratia marcescens strain 4, Muller Hinton broth-cation adjusted) greater than 128. For the same compound, the Minimum inhibitory concentration ([5]; Serratia marcescens strain 5, Muller Hinton broth-cation adjusted) was greater than 128, the Minimum inhibitory concentration ([6]; Staphylococcus aureus strain 1, Muller Hinton broth-cation adjusted) was 1 and the Minimum inhibitory concentration ([6]; Staphylococcus aureus strain 2, Muller Hinton broth-cation adjusted) was 1. For the same compound, the Minimum inhibitory concentration ([6]; Staphylococcus aureus strain 3, Muller Hinton broth-cation adjusted) was 1, the Minimum inhibitory concentration ([6]; Staphylococcus aureus strain 4, Muller Hinton broth-cation adjusted) was 1 and the Minimum inhibitory concentration ([6]; Staphylococcus aureus strain 5, Muller Hinton broth-cation adjusted) was 1. It also gave a Minimum inhibitory concentration ([7]; Pseudomonas aeruginosa strain 1, Muller Hinton broth-cation adjusted) of 16, a Minimum inhibitory concentration ([7]; Pseudomonas aeruginosa strain 2, Muller Hinton broth-cation adjusted) of 8 and a Minimum inhibitory concentration ([7]; Pseudomonas aeruginosa strain 3, Muller Hinton broth-cation adjusted) of 16. The Minimum inhibitory concentration ([7]; Pseudomonas aeruginosa strain 4, Muller Hinton broth-cation adjusted) was 8, the Minimum inhibitory concentration ([7]; Pseudomonas aeruginosa strain 5, Muller Hinton broth-cation adjusted) was 4 and the Minimum inhibitory concentration ([8]; Enterobacter cloacae strain 1, Muller Hinton broth-cation adjusted) was 4. For the same compound, the Minimum inhibitory concentration ([8]; Enterobacter cloacae strain 2, Muller Hinton broth-cation adjusted) was 4, the Minimum inhibitory concentration ([8]; Enterobacter cloacae strain 3, Muller Hinton broth-cation adjusted) was 4 and the Minimum inhibitory concentration ([8]; Enterobacter cloacae strain 4, Muller Hinton broth-cation adjusted) was 4. For the same compound, the Minimum inhibitory concentration ([8]; Enterobacter cloacae strain 5, Muller Hinton broth-cation adjusted) was 2, the Minimum inhibitory concentration [9, 13] was 16 and the Minimum inhibitory concentration [9, 14] was 16. For the same compound, the Minimum inhibitory concentration [9, 15] was 8, the Minimum inhibitory concentration [9, 16] was 64 and the Minimum inhibitory concentration [10, 17] was 16. The Minimum inhibitory concentration [10, 18] was 8, the Minimum inhibitory concentration [10, 19] was 8 and the Minimum inhibitory concentration [10, 20] was 8. The Minimum inhibitory concentration [11, 21] was 8, the Minimum inhibitory concentration [11, 22] was 8 and the Minimum inhibitory concentration [11, 23] was 8. The Minimum inhibitory concentration [11, 24] was 16, the Minimum inhibitory concentration [11, 25] was 16 and the Minimum inhibitory concentration [12] was 4.

Compound C[C@@H]1[C@H](O)[C@@H](C)/C=C/C=C/C=C/C=C/C=C/C=C/C=C/[C@H](O[C@@H]2O[C@H](C)[C@@H](O)[C@H](N)[C@@H]2O)C[C@@H]2O[C@](O)(C[C@@H](O)C[C@@H](O)[C@H](O)CC[C@@H](O)C[C@@H](O)CC(=O)O[C@H]1C)C[C@H](O)[C@H]2C(=O)O [Amphotericin B] has a Minimum inhibitory concentration [9, 13] of 4, a Minimum inhibitory concentration [9, 14] of 4 and a Minimum inhibitory concentration [9, 15] of 2. It also gave a Minimum inhibitory concentration [9, 16] of 4, a Minimum inhibitory concentration [10, 17] of 2 and a Minimum inhibitory concentration [10, 18] of 2. It also gave a Minimum inhibitory concentration [10, 19] of 2, a Minimum inhibitory concentration [10, 20] of 2 and a Minimum inhibitory concentration [11, 21] of 2. The Minimum inhibitory concentration [11, 22] was 0.5, the Minimum inhibitory concentration [11, 23] was 2 and the Minimum inhibitory concentration [11, 24] was 2. It also gave a Minimum inhibitory concentration [11, 25] of 2 and a Minimum inhibitory concentration [12] of 2.
